# Measurements published in patent publication US11185527B2, “Methods and compositions relating to steroid hormone receptor-dependent cancers” (Wayne State University, priority 2017, dated 2021).
# Several values for one entry are separate records, joined by “and”; a condition that tells them apart may be missing. Identical values can stand only once.
# Legend:
# [1] = Metabolism in pooled human liver microsomes (HLM) with or without NADPH; assay type: in vitro ADME; conditions: HLM 0.05 mg/ml, 30 minutes, 37° C.
# Description: BD UltraPool human liver microsomes (HLM) 150 and the NAPDH regenerating system solution A and B were obtained from Corning Inc. Pooled HLM were used to determine percentage of metabolism of 5,3′-Dihydroxyflavone and 5,3-Dihydroxy-4′-methylflavone. The compounds (20 μM) were co-incubated with HLM (0.05 mg/ml) in the presence or absence of NAPDH for 30 minutes in a 37° C. water bath. At the end of the microsome reaction, the reaction was quenched with 1000 μl ethyl acetate. The mixture was vortexed and centrifuged at 13,000 rpm for 15 minutes, the supernatant was then subjected to high-performance liquid chromatography with tandem mass spectrometry ([…]) analysis.
# BT474 cells = assay: Breast cancer cell growth, MTT assay; assay type: cell-based
# Description: (§1) Twenty four hours after plating the cells, they were treated with the indicated concentrations of the compound.
# T47D cells = assay: Breast cancer cell growth, MTT assay; assay type: cell-based
# Description: as §1
# MCF-7 cells = assay: Breast cancer cell growth, MTT assay; assay type: cell-based
# Description: as §1
# [2] = tested on: HEK293 (adenovirus transformed kidney fibroblasts), AR-negative; assay: Cell monolayer growth assay (MTT); assay type: cell-based
# Description: FIG. 12C is a graph showing the effect of KCI807 on in vitro growth of AR-negative cell line HEK293 cells measured by the MTT assay. All values were plotted relative to the Day zero value.
# (§2) Cells were trypsinized and 3000-4000 cells/well were seeded in 96-well plates coated with poly-D-lysine. The cells were seeded in phenol red-free medium supplemented with 10% FBS, 100 units/ml penicillin, 100 μg/ml streptomycin, 2 mM L-glutamine mixture and sodium pyruvate (1 mM) for LNCaP cells and phenol red-free medium supplemented with 10% FBS, 100 units/ml penicillin, 100 μg/ml streptomycin and 2 mM L-glutamine mixture for VCaP, 22Rv1, DU145, HeLa, HEK293 and H1650 cells. The cells were grown at 37° C. in 5% CO2. Twenty four hours after seeding in the 96-well plates, the cells were treated with the indicated concentration of KCI807 or DMSO (vehicle). The cells were re-treated on Day 3 by removing half the volume of medium and replacing it with fresh treated medium. Cell viability was determined using the MTT assay from day zero until day five. MTT (10 μL, 5 mg/mL) was added to each well and incubated for 2h at 37° C. The formazan crystal sediments were dissolved in 100 μL of DMSO, and the absorbance at 570 nm was measured using the BioTek Synergy 2 Microplate Reader (BioTek, Winooski, Vt.). The assay was conducted in sextuplicate wells and values were normalized to day zero.
# [3] = tested on: protein level of AR or AR-V7; assay: Western blot of AR in LNCaP, VCaP and 22Rv1 cells; assay type: cell-based; conditions: VCaP, 10 μM, 24h
# Description: Protein lysates were extracted after 24h of treatment and probed using antibodies to AR and GAPDH (loading control).
# The treated cells were washed once with phosphate buffered saline (PBS) and then lysed with RIPA buffer (150 mM NaCl, 1% Nonidet P-40, 0.5% sodium deoxycholate, 0.1% SDS, 50 mM Tris of pH 8.0) containing a protease inhibitor cocktail (Pierce, Thermo Fisher Scientific). The cell lysates were then incubated on ice for 40 minutes and vortexed every 10 minutes. Total protein concentrations were estimated using the Bradford Assay (Bio-Rad). Ten micrograms of each protein sample was heated at 95° C. for 5 minutes and resolved by electrophoresis on 8% polyacrylamide-SDS gels and electrophoretically transferred to PVDF membranes (Millipore, Billerica, Mass.). The membranes were then probed overnight at 4° C. with the appropriate primary antibody followed by the appropriate horseradish peroxidase-conjugated secondary antibody. The blots were then developed to visualize the protein bands using the HyGLO
# [4] = tested on: AR recruitment to chromatin in LNCaP cells; assay: Chromatin immunoprecipitation (ChIP) with AR antibody in LNCaP cells; assay type: cell-based; conditions: R1881 10 nM + KCI807 20 uM, 2h
# Description: FIGS. 2E and 2F are graphs showing results of tests in which LNCaP cells were treated with R1881 (10 nM), R1881 (10 nM)+KCI807 (20 uM), or vehicle for 2h. The cells were fixed and subjected to the chromatin immunoprecipitation (ChIP) assay using antibody to AR. ChIP signals from established sites of AR recruitment by ELK1 (FIG. 2E) or from canonical ARE enhancer sites associated with the KLK3 and TMPRSS2 genes (FIG. 2F) are plotted as percent of input DNA.
# The ability of KCI807 to selectively block recruitment of AR by ELK1 to chromatin in situ was tested.
# [5] = tested on: HeLa (cervical cancer cells), AR-negative; assay: Cell monolayer growth assay (MTT); assay type: cell-based
# Description: as §2, with “FIG. 12B is a graph showing the effect of KCI807 on in vitro growth of AR-negative cell line HeLa cells measured by the MTT assay. All values were plotted relative to the Day zero value. Cells” for “Cells”
compound,measurement,setting,value
"O=c1cc(-c2cccc(O)c2)oc2cccc(O)c12 [KCI807, 5,3′-dihydroxyflavone]","compound concentration after HLM incubation, Control (absence of NADPH), replicate",[1],973 nM and 981 nM and 1006 nM
same,"compound concentration after HLM incubation, NADPH treated, replicate",[1],796 nM and 725 nM and 863 nM
same,"mean compound concentration, Control (absence of NADPH)",[1],986 nM
same,"mean compound concentration, NADPH treated",[1],795 nM
same,percentage metabolized (%),[1]; NADPH,19.4%
same,growth of BT474 cells,BT474 cells,growth inhibitory
same,growth of T47D cells,T47D cells,growth inhibitory
same,growth of MCF-7 cells,MCF-7 cells,growth inhibitory
same,growth of HEK293 cells,[2],did not appreciably affect the growth
same,protein level of AR or AR-V7,[3],in no case did KCI807 treatment alter the protein level
same,AR association with chromatin sites at which ELK1 recruits AR,[4],prevented association of AR
same,"AR recruitment at canonical ARE enhancer sites (KLK3, TMPRSS2)",[4],did not affect AR recruitment
same,growth of HeLa cells,[5],did not appreciably affect the growth
